Test results as given in patent EP4703354A1, “COMPOUND AS CCR6 ANTAGONIST, AND PHARMACEUTICAL COMPOSITION AND USE THEREOF” (Wuhan Createrna Science and Technology Co.,Ltd., priority 2023, dated 2024).

How the values were obtained:
human CCR6 = target: T1, human CCR6 (Homo sapiens, UniProt P51684); assay: human CCR6 calcium flux activity (FLIPR, HEK293 cells stably expressing human CCR6, CCL20 stimulation); type: cell-based; settings: for IC50: HEK293 cells stably expressing human CCR6, EC80 human MIP-3 alpha/CCL20, read-out: CCR6 inhibitory activity, IC50; for CCR6 selectivity: ratio of CXCR2 IC50 to CCR6 IC50
T1 construct: expressed in transfected cells; host or cells: HEK293
T1 sequence (P51684 1-374): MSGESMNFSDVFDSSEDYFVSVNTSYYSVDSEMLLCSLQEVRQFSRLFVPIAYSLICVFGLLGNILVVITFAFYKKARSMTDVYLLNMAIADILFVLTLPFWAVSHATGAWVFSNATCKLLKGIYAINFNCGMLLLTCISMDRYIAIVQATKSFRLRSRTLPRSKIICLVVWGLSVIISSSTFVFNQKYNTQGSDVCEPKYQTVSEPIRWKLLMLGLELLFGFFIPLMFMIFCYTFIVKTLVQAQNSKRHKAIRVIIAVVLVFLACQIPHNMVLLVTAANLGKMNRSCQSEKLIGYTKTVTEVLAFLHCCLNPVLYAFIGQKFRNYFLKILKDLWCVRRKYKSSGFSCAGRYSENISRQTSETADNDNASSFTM
Summary of the method: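 Compounds preincubated with Fluo-4 Direct-loaded cells 50 min at 37 °C, then 10 min at room temperature, before CCL20 challenge at EC80. Fluorescence (ex 494/em 516 nm) recorded 90 s; max−min signal gives inhibition, four-parameter fit yields IC50.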

[1] = in vitro liver microsome metabolic stability, mouse; type: in vitro ADME; settings: Mouse liver microsomes, 37°C
Description: Preparation of working solutions for test compounds and standards: An appropriate amount of the compound was accurately weighed and dissolved in a corresponding volume of suitable solvent to prepare 1 mM stock solutions of the test compounds and standards. The stock solutions were then diluted with appropriate solvent to obtain 100 µM working solutions of the test compounds, ensuring that the DMSO content in the working solutions remained below 10%.
The internal standard compound testosterone (or tolbutamide) and its corresponding solvent, internal standard concentration (200 ng/mL), were selected based on the properties of the test compound.
• Solution A: 0.1 mol/L K2HPO4 (2.28 g K2HPO4·3H2O was dissolved in 100 mL of double-distilled water); • Solution B: 0.1 mol/L KH2PO4 (1.36 g KH2PO4 was dissolved in 100 mL of double-distilled water); • 80.2 mL of Solution A and 19.8 mL of Solution B were mixed thoroughly, and the pH was adjusted to 7.4.
37.5 mg of glycine was weighed, dissolved in 100 mL of ultrapure water, and adjusted to pH 8.0 with NaOH.
1.25 mg of glucose-6-phosphate dehydrogenase (400 U/mg) was weighed (the specific amount weighed was calculated based on the activity of the purchased glucose-6-phosphate dehydrogenase), dissolved in 1 mL of glycine buffer to a concentration of 500 U/mL, aliquoted into 20 µL per tube, and stored at -20°C for future use.
7.83 mg of NADP, 0.06 mL of D-glucose-6-phosphate (260 mg/mL), and 10.17 mg of MgCl2·6H2O were precisely weighed.
The mixture was dissolved in 1 mL of pure water. The cofactor ratio composition: NADP 10 mM, D-glucose-6-phosphate 60 mM, MgCl2·6H2O 50 mM.
The reaction system (taking a 500 µL system as an example) was composed of the following solution ratios: 416.5 µL phosphate buffer, 5 µL compound working solution, 25 µL liver microsomes, 3.5 µL glucose-6-phosphate dehydrogenase, and 50 µL cofactor solution. The total incubation volume could be adjusted according to experimental requirements.
416.5 µL of phosphate buffer was taken, 25 µL of liver microsomes, 3.5 µL of glucose-6-phosphate dehydrogenase, and 50 µL of cofactor solution were added, vortexed twice to mix, and preincubated in a 37°C water bath for 5 minutes. Then, 5 µL of the test compound working solution was added, vortexed twice to mix, each time for 2-3 seconds, and placed in a 37°C water bath to initiate the reaction, with two parallel samples set. At 0.5 min, 1 min, 2 min, 5 min, 15 min, and 30 min after the reaction, 50 µL of the mixture was taken and added to centrifuge tubes containing 200 µL of 0°C pre-cooled internal standard working solution to terminate the reaction, vortexed for 1 minute to mix, and centrifuged at 13,000 rpm for 10 minutes in a 4°C pre-cooled high-speed centrifuge. The supernatant was collected for analysis. After the compound was added and vortex-mixed, 50 µL of the mixture was rapidly transferred to a centrifuge tube containing 200 µL of a pre-cooled (0°C) internal standard working solution to terminate the reaction, vortex-mixed for 1 minute, and used as the relative zero-point sample (relative to the standard group). The sample was then placed into a 37°C water bath to initiate the reaction, and timing was started.
The sample analysis of the test compound was performed using the liquid chromatography-tandem mass spectrometry (LCMS/MS) method. The semi-quantitative determination was performed using the ratio of the analyte peak area to the internal standard peak area. The retention times of the analyte and internal standard, chromatogram acquisition, and chromatogram integration were processed using Analyst software.
The in vitro elimination rate constant k of the test compound and the control compound was determined by converting the ratio of the peak area of the test compound to the internal standard into the remaining rate, and T1/2 was then calculated according to the following formula. T1/2 = (Ln2)/(k) = (0.693)/(k) [formula] Table 3. […]

Row | Compound | IC50 (human CCR6) | CCR6 selectivity (human CCR6) | Liver microsome T1-2 (min) Mouse [1]
1 | CN(C)C(=O)c1nccc(Nc2c(N[C@@H](c3cccc(CF)n3)C3(C)CCCC3)c(=O)c2=O)c1O [compound 108, (R)-4-((2-(((6-(fluoromethyl)pyridin-2-yl)(1-methylcyclopentyl)methyl)amino)-3,4-dioxocyclobut-1-en-1-yl)amino)-3-hydroxy-N,N-dimethylpicolinamide] | 3.9 nM | 189.6 | –
2 | CN(C)C(=O)c1nccc(Nc2c(N[C@@H](C#CC3CCC3)[C@]3(C)CC(F)(F)CO3)c(=O)c2=O)c1O (single isomer, unassigned) [110A] | 9.3 nM | 32.0 | 1597.63 min
3 | Cc1cccnc1[C@H](Nc1c(Nc2ccc(Cl)c(C(=O)N(C)C)c2O)c(=O)c1=O)C1(C)CCCC1 [compound 063, (R)-6-chloro-2-hydroxy-N,N-dimethyl-3-((2-(((1-methylcyclopentyl)(3-methylpyridin-2-yl)methyl)amino)-3,4-dioxocyclobut-1-en-1-yl)amino)benzamide] | 11.7 nM | 1310.8 | ≥120 min
4 | Cc1cc(F)cnc1[C@H](Nc1c(Nc2ccnc(C(=O)N(C)C)c2O)c(=O)c1=O)[C@]1(C)CC(F)(F)CO1 [093A, 4-((2-(((S)-((S)-4,4-difluoro-2-methyltetrahydrofuran-2-yl)(5-fluoro-3-methylpyridin-2-yl)methyl)amino)-3,4-dioxocyclobut-1-en-1-yl)amino)-3-hydroxy-N,N-dimethylpicolinamide] | 17.1 nM | > 5848.0 | –
5 | CC#C[C@H](Nc1c(Nc2ccc(Cl)c(C(=O)N(C)C)c2O)c(=O)c1=O)C1(C)CCCC1 [compound 114, (R)-6-chloro-2-hydroxy-N, N-dimethyl-3-((2-((1-(1-methylcyclopentyl)but-2-yn-1-yl)amino)-3,4-dioxocyclobut-1-en-1-yl)amino)benzamide] | 55.3 nM | 26.2 | 361.28 min
6 | CN(C)C(=O)c1nccc(Nc2c(N[C@@H](c3ncc(F)cc3F)C3(C)CCCC3)c(=O)c2=O)c1O [compound 009, (R)-4-((2-(((3,5-difluoropyridin-2-yl)(1-methylcyclopentyl)methyl)amino)-3,4-dioxocyclobut-1-en-1-yl)amino)-3-hydroxy-N,N-dimethylpicolinamide] | 8 nM | 303.4 | 178.84 min
7 | CN(C)C(=O)c1nccc(Nc2c(N[C@@H](c3ccc(F)cn3)C3(C)CCCC3)c(=O)c2=O)c1O [compound 005, (R)-4-((2-(((5-fluoropyridin-2-yl)(1-methylcyclopentyl)methyl)amino)-3,4-dioxocyclobut-1-en-1-yl)amino)-3-hydroxy-N,N-dimethylpicolinamide] | 10.9 nM | 115.0 | 1188.6 min
8 | CN(C)C(=O)c1nccc(Nc2c(N[C@@H](C#CC3CC3)C3(C)CCCC3)c(=O)c2=O)c1O [compound 115, (R)-4-((2-((3-cyclopropyl-1-(1-methylcyclopentyl)prop-2-yn-1-yl)amino)-3,4-dioxocyclobut-1-en-1-yl)amino)-3-hydroxy-N,N-dimethylpicolinamide] | 47.6 nM | 11.1 | 1889.54 min
9 | CC#C[C@H](Nc1c(Nc2ccnc(C(=O)N(C)C)c2O)c(=O)c1=O)C1(C)CCCC1 [compound 113, (R)-3-hydroxy-N, N-dimethyl-4-((2-((1-(1-methylcyclopentyl)but-2-yn-1-yl)amino)-3,4-dioxocyclobut-1-en-1-yl)amino)picolinamide] | 49.8 nM | 29.7 | –
10 | CN(C)C(=O)c1nccc(Nc2c(N[C@@H](c3cccc(Cl)n3)C3(C)CCCC3)c(=O)c2=O)c1O [compound 003, (R)-4-((2-(((6-chloropyridin-2-yl)(1-methylcyclopentyl)methyl)amino)-3,4-dioxocyclobut-1-en-1-yl)amino)-3-hydroxy-N,N-dimethylpicolinamide] | 22.1 nM | 100.0 | –
11 | CN(C)C(=O)c1nccc(Nc2c(N[C@@H](c3nc(Cl)ccc3F)[C@@]3(C)CC(F)(F)CO3)c(=O)c2=O)c1O [068B, 4-((2-(((S)-(6-chloro-3-fluoropyridin-2-yl)((R)-4,4-difluoro-2-methyltetrahydrofuran-2-yl)methyl)amino)-3,4-dioxocyclobut-1-en-1-yl)amino)-3-hydroxy-N,N-dimethylpicolinamide] | 5.3 nM | 1440.2 | 65.23 min
